MIC data for eight compounds are collected here from ChEMBL document CHEMBL3046423, “SQ109 analogues as potential antimicrobial candidates” (2011).

In brackets after ≈: the same amount, converted by molar mass. Bounds are passed on as bounds.

Holding throughout (type): functional
One assay relates to Bacillus subtilis. Put plainly: Antibacterial activity against Bacillus subtilis ATCC 6051 after 16 to 18 hr by broth microdilution method.
The subject of assay [1] is Aspergillus flavus. Put plainly: Antifungal activity against Aspergillus flavus after 24 hr by broth microdilution method. A general note: Dilution methods test growth across graded concentrations, often in twofold steps.
Another assay relates to Fusarium sp. Put plainly: Antifungal activity against Fusarium sp. after 24 hr by broth microdilution method.
The subject of a further assay is Penicillium sp. Put plainly: Antifungal activity against Penicillium sp. after 24 hr by broth microdilution method.
The subject of another assay is Scopulariopsis. Put plainly: Antifungal activity against Scopulariopsis spp. after 24 hr by broth microdilution method.
Another assay concerns Klebsiella pneumoniae. Put plainly: Antibacterial activity against Klebsiella pneumoniae ATCC 700603 after 16 to 18 hr by broth microdilution method.
In a further assay the test system is Escherichia coli. Put plainly: Antibacterial activity against Escherichia coli ATCC 35218 after 16 to 18 hr by broth microdilution method.
The test system of the next assay is Klebsiella oxytoca. Put plainly: Antibacterial activity against Klebsiella oxytoca ATCC 13182 after 16 to 18 hr by broth microdilution method.
Assay [2] deals with Candida albicans. Put plainly: Antifungal activity against Candida albicans ATCC 90028 after 24 hr by broth microdilution method. To be noted: ATCC 90028, 24 h.
The subject of another assay is Candida tropicalis. Put plainly: Antifungal activity against Candida tropicalis after 24 hr by broth microdilution method.
Another assay concerns Staphylococcus aureus. Put plainly: Antibacterial activity against Staphylococcus aureus ATCC 43300 after 16 to 18 hr by broth microdilution method.
The test system of another assay is Aspergillus fumigatus. Put plainly: Antifungal activity against Aspergillus fumigatus after 24 hr by broth microdilution method.
Another assay has as its system Prescottella equi. Put plainly: Antibacterial activity against Rhodococcus equi ATCC 6939 after 16 to 18 hr by broth microdilution method. To be noted: Rhodococcus (subgen. Prescottella) equi.
The next assay has as its system Cyberlindnera jadinii. Put plainly: Antifungal activity against Cyberlindnera jadinii after 24 hr by broth microdilution method. To be noted: Williopsis jadinii.
The subject of another assay is Rhizomucor. Put plainly: Antifungal activity against Rhizomucor spp. after 24 hr by broth microdilution method.
Assay [3] concerns Aspergillus flavus. Put plainly: Antifungal activity against Aspergillus flavus MRC 2527 after 24 hr by broth microdilution method. To be noted: MRC 2527, 24 h.
Assay [4] relates to Pichia kudriavzevii. Put plainly: Antifungal activity against fluconazole-resistant Pichia kudriavzevii after 24 hr by broth microdilution method.
Another assay concerns Trichosporon asahii. Put plainly: Antifungal activity against Trichosporon asahii after 24 hr by broth microdilution method.
For assay [5], the system named is Elizabethkingia meningoseptica. Put plainly: Antibacterial activity against Elizabethkingia meningoseptica ATCC 13253 after 16 to 18 hr by broth microdilution method.
In assay [6] the test system is Candida parapsilosis. Put plainly: Antifungal activity against fluconazole-resistant Candida parapsilosis after 24 hr by broth microdilution method. To be noted: Lodderomyces parapsilosis.
Another assay relates to Staphylococcus xylosus. Put plainly: Antibacterial activity against Staphylococcus xylosus ATCC 35033 after 16 to 18 hr by broth microdilution method.
The test system of a further assay is Sporothrix schenckii. Put plainly: Antifungal activity against Sporothrix schenckii after 24 hr by broth microdilution method.
The subject of assay [7] is Candida parapsilosis. Put plainly: Antifungal activity against Candida parapsilosis ATCC 22019 after 24 hr by broth microdilution method. To be noted: Lodderomyces parapsilosis, ATCC 22019, 24 h.
The subject of assay [8] is Pichia kudriavzevii. Put plainly: Antifungal activity against Pichia kudriavzevii after 24 hr by broth microdilution method.
The subject of assay [9] is Candida albicans. Put plainly: Antifungal activity against fluconazole-susceptible Candida albicans.
The subject of assay [10] is Candida albicans. Put plainly: Antifungal activity against fluconazole-resistant Candida albicans.

With `CC(C)CCCC(C)CCNCCNC1C2CC3CC(C2)CC1C3.Cl` (stereo not drawn), the MIC (usually the lowest concentration that inhibits growth of the organism) in the assay with Bacillus subtilis amounted to 15.6 µg/mL; in the assay with Aspergillus flavus [1], 31.2 µg/mL; in the assay on Fusarium sp. it was 7.8 µg/mL; with Penicillium sp., 3.9 µg/mL; against Scopulariopsis, 1.95 µg/mL; against Klebsiella pneumoniae, 125 µg/mL. Further, the MIC against Escherichia coli stood at 31.2 µg/mL; in the assay with Klebsiella oxytoca, 62.5 µg/mL; against Candida albicans [2], 3.9 µg/mL; in the assay with Candida tropicalis it was 7.8 µg/mL; with Staphylococcus aureus, 31.2 µg/mL; in the assay with Aspergillus fumigatus it was 7.8 µg/mL. Moreover, the MIC against Prescottella equi was 7.8 µg/mL; against Cyberlindnera jadinii it was 1.95 µg/mL; against Rhizomucor it was 7.8 µg/mL; against Aspergillus flavus [3], 25 µg/mL; against Pichia kudriavzevii [4] it was 0.98 µg/mL; against Trichosporon asahii it was 7.8 µg/mL. Also, the MIC worked out at 31.2 µg/mL in assay [5]; 7.8 µg/mL in the assay with Candida parapsilosis [6]; 15.6 µg/mL against Staphylococcus xylosus; 0.49 µg/mL against Sporothrix schenckii; 7.8 µg/mL with Candida parapsilosis [7]; 7.8 µg/mL against Pichia kudriavzevii [8].

For `CC(C)=CCC/C(C)=C/CC/C(C)=C/CNCCNC1C2CC3CC(C2)CC1C3.Cl` (stereo not drawn), the MIC in the assay with Bacillus subtilis turned out to be 7.8 µg/mL; with Aspergillus flavus [1], 15.6 µg/mL; against Fusarium sp., 7.8 µg/mL; against Penicillium sp., 3.9 µg/mL; with Scopulariopsis, 3.9 µg/mL; in the assay with Klebsiella pneumoniae, 125 µg/mL. Besides, the MIC is 7.8 µg/mL against Escherichia coli; 15.6 µg/mL in the assay on Klebsiella oxytoca; 7.8 µg/mL in the assay on Candida albicans [2]; 3.9 µg/mL against Candida tropicalis; 15.6 µg/mL with Staphylococcus aureus; 7.8 µg/mL with Aspergillus fumigatus. The MIC was 7.8 µg/mL in the assay on Prescottella equi; 1.95 µg/mL against Cyberlindnera jadinii; 7.8 µg/mL against Rhizomucor; 25 µg/mL in the assay on Aspergillus flavus [3]; 1.95 µg/mL with Pichia kudriavzevii [4]; 3.9 µg/mL in the assay on Trichosporon asahii. Further, the MIC in [5] came out at 15.6 µg/mL; with Candida parapsilosis [6], 3.9 µg/mL; in the assay on Staphylococcus xylosus, 7.8 µg/mL; against Sporothrix schenckii, 0.98 µg/mL; against Candida parapsilosis [7], 7.8 µg/mL; with Pichia kudriavzevii [8], 3.9 µg/mL.

For the compound `CC(C)CCCC(C)CCCC(C)CCNCCNC1C2CC3CC(C2)CC1C3.Cl` (stereo not drawn), the MIC with Bacillus subtilis was found to be 3.9 µg/mL; in the assay on Aspergillus flavus [1], 25 µg/mL; against Fusarium sp. it was 12.5 µg/mL; with Penicillium sp. it was 6.25 µg/mL; in the assay on Scopulariopsis it was 3.13 µg/mL; in the assay with Klebsiella pneumoniae it was 250 µg/mL. In addition, the MIC worked out at 7.8 µg/mL in the assay with Escherichia coli; 31.2 µg/mL against Klebsiella oxytoca; 6.25 µg/mL in the assay with Candida albicans [2]; 6.25 µg/mL against Candida tropicalis; 7.8 µg/mL with Staphylococcus aureus; 12.5 µg/mL with Aspergillus fumigatus. Moreover, the MIC with Prescottella equi was 3.9 µg/mL; against Cyberlindnera jadinii it was 3.13 µg/mL; against Rhizomucor, 12.5 µg/mL; with Aspergillus flavus [3], more than 100 µg/mL; in the assay on Pichia kudriavzevii [4], 3.13 µg/mL; against Trichosporon asahii, 6.25 µg/mL. Moreover, the MIC worked out at 7.8 µg/mL in assay [5]; 6.25 µg/mL in the assay with Candida parapsilosis [6]; 3.9 µg/mL against Staphylococcus xylosus; 1.56 µg/mL with Sporothrix schenckii; 6.25 µg/mL with Candida parapsilosis [7]; 6.25 µg/mL in the assay with Pichia kudriavzevii [8].

As to `CC(C)=CCC/C(C)=C/CNCCNC12CC3CC(CC(C3)C1)C2.Cl`, the MIC against Bacillus subtilis is 125 µg/mL; in the assay with Aspergillus flavus [1], more than 500 µg/mL; against Fusarium sp., 250 µg/mL; against Penicillium sp. it was 62.5 µg/mL; in the assay with Scopulariopsis, 125 µg/mL; against Klebsiella pneumoniae, 1000 µg/mL. The minimum inhibitory concentration (MIC) turned out to be 500 µg/mL in the assay on Escherichia coli; 500 µg/mL with Klebsiella oxytoca; 31.2 µg/mL in the assay with Candida albicans [2]; 62.5 µg/mL in the assay on Candida tropicalis; 500 µg/mL in the assay on Staphylococcus aureus; 125 µg/mL against Aspergillus fumigatus. In addition, the MIC is 125 µg/mL in the assay with Prescottella equi; 31.2 µg/mL against Cyberlindnera jadinii; 125 µg/mL in the assay with Rhizomucor; more than 100 µg/mL with Aspergillus flavus [3]; 15.6 µg/mL against Pichia kudriavzevii [4]; 125 µg/mL against Trichosporon asahii. For the same compound, the MIC stood at 500 µg/mL in assay [5]; 125 µg/mL against Candida parapsilosis [6]; 250 µg/mL in the assay with Staphylococcus xylosus; 3.9 µg/mL in the assay with Sporothrix schenckii; 250 µg/mL in the assay with Candida parapsilosis [7]; 125 µg/mL with Pichia kudriavzevii [8].

For `CC(C)CCCC(C)CCNCCNC12CC3CC(CC(C3)C1)C2.Cl` (stereo not drawn), the MIC in the assay on Bacillus subtilis turned out to be 15.6 µg/mL; against Aspergillus flavus [1], 31.2 µg/mL; with Fusarium sp. it was 7.8 µg/mL; against Penicillium sp. it was 7.8 µg/mL; against Scopulariopsis, 1.95 µg/mL; against Klebsiella pneumoniae, 62.5 µg/mL. The MIC in the assay on Escherichia coli was 31.2 µg/mL; with Klebsiella oxytoca, 62.5 µg/mL; in the assay with Candida albicans [2] it was 3.9 µg/mL; against Candida tropicalis, 3.9 µg/mL; against Staphylococcus aureus, 62.5 µg/mL; against Aspergillus fumigatus, 15.6 µg/mL. Besides, the MIC came out at 15.6 µg/mL with Prescottella equi; 1.95 µg/mL with Cyberlindnera jadinii; 7.8 µg/mL against Rhizomucor; 25 µg/mL in the assay on Aspergillus flavus [3]; 0.98 µg/mL against Pichia kudriavzevii [4]; 7.8 µg/mL with Trichosporon asahii. The MIC amounted to 31.2 µg/mL in assay [5]; 7.8 µg/mL against Candida parapsilosis [6]; 15.6 µg/mL against Staphylococcus xylosus; 0.49 µg/mL in the assay with Sporothrix schenckii; 15.6 µg/mL with Candida parapsilosis [7]; 15.6 µg/mL in the assay on Pichia kudriavzevii [8].

Regarding `CC(C)=CCC/C(C)=C/CNCCNC1C2CC3CC(C2)CC1C3.Cl` (stereo not drawn), the MIC in the assay with Bacillus subtilis was determined as 500 µg/mL; in the assay on Aspergillus flavus [1], 500 µg/mL; in the assay with Fusarium sp., 125 µg/mL; in the assay with Penicillium sp., 125 µg/mL; in the assay with Scopulariopsis it was 62.5 µg/mL; against Klebsiella pneumoniae, 1000 µg/mL. Moreover, the MIC with Escherichia coli turned out to be 500 µg/mL; in the assay on Klebsiella oxytoca, 500 µg/mL; with Candida albicans [9], 4 µg/mL; against Candida albicans [2], 125 µg/mL; with Candida albicans [10] it was 4 µg/mL; in the assay with Candida tropicalis, 32.5 µg/mL. Besides, the MIC in the assay with Staphylococcus aureus is 1000 µg/mL; in the assay on Aspergillus fumigatus, 250 µg/mL; in the assay on Prescottella equi, 125 µg/mL; in the assay with Cyberlindnera jadinii, 15.6 µg/mL; in the assay with Rhizomucor, 125 µg/mL; against Aspergillus flavus [3], more than 100 µg/mL. In addition, the MIC was 15.6 µg/mL against Pichia kudriavzevii [4]; 125 µg/mL in the assay on Trichosporon asahii; 500 µg/mL in assay [5]; 250 µg/mL against Candida parapsilosis [6]; 500 µg/mL with Staphylococcus xylosus; 1.95 µg/mL against Sporothrix schenckii. Further, the MIC in the assay with Candida parapsilosis [7] and with Pichia kudriavzevii [8] was 250 µg/mL throughout.

Turning to `C[C@@H]1[C@H](O)[C@@H](C)/C=C/C=C/C=C/C=C/C=C/C=C/C=C/[C@H](O[C@@H]2O[C@H](C)[C@@H](O)[C@H](N)[C@@H]2O)C[C@@H]2O[C@](O)(C[C@@H](O)C[C@@H](O)[C@H](O)CC[C@@H](O)C[C@@H](O)CC(=O)O[C@H]1C)C[C@H](O)[C@H]2C(=O)O` [AMPHOTERICIN B], the MIC in the assay on Fusarium sp. is 2.5 µg/mL (≈ 2.71 µM); in the assay on Scopulariopsis, 10 µg/mL (≈ 10.8 µM); in the assay on Candida albicans [2], 0.62 µg/mL (≈ 0.671 µM); against Cyberlindnera jadinii it was 0.31 µg/mL (≈ 0.335 µM); in the assay on Rhizomucor, 0.31 µg/mL (≈ 0.335 µM); in the assay with Trichosporon asahii, 0.31 µg/mL (≈ 0.335 µM). For the same compound, the MIC amounted to 0.02 µg/mL (≈ 0.0216 µM) with Candida parapsilosis [6], 5 µg/mL (≈ 5.41 µM) in the assay with Sporothrix schenckii and 0.04 µg/mL (≈ 0.0433 µM) in the assay on Candida parapsilosis [7].

With `NC[C@@H]1O[C@H](O[C@H]2[C@@H](O)[C@H](O[C@@H]3[C@@H](O)[C@H](N)C[C@H](N)[C@H]3O[C@H]3O[C@H](CN)[C@@H](O)[C@H](O)[C@H]3N)O[C@@H]2CO)[C@H](N)[C@@H](O)[C@@H]1O` [FRAMYCETIN], the MIC against Bacillus subtilis is 0.78 µg/mL (≈ 1.27 µM); against Klebsiella pneumoniae it was 6.25 µg/mL (≈ 10.2 µM); against Escherichia coli, 3.13 µg/mL (≈ 5.09 µM); in the assay with Klebsiella oxytoca, 6.25 µg/mL (≈ 10.2 µM); against Staphylococcus aureus, 25 µg/mL (≈ 40.7 µM); against Prescottella equi it was 1.56 µg/mL (≈ 2.54 µM). Also, the MIC in [5] came out at 12.5 µg/mL (≈ 20.3 µM); in the assay with Staphylococcus xylosus it was 0.2 µg/mL (≈ 0.325 µM).
